Laboratory results: publication PMC6039436, “Radiobrominated benzimidazole-quinoline derivatives as Platelet-derived growth factor receptor beta (PDGFRβ) imaging probes” (Scientific Reports, 2018)
Marks after values point to notes of the source that are not given here.

Assays:
PDGFRβ (BxPC3-luc cells) = biological target: T1, PDGFRβ (BxPC3-luc cells) (Homo sapiens, UniProt P09619); assay: Competitive binding assay of [^125I]4 with BxPC3-luc cells; conditions: displacement of [^125I]4, BxPC3-luc cells, 37 °C, 4 h
T1 construct: host or cells: BxPC3-luc cells
T1 sequence (P09619 33-1106): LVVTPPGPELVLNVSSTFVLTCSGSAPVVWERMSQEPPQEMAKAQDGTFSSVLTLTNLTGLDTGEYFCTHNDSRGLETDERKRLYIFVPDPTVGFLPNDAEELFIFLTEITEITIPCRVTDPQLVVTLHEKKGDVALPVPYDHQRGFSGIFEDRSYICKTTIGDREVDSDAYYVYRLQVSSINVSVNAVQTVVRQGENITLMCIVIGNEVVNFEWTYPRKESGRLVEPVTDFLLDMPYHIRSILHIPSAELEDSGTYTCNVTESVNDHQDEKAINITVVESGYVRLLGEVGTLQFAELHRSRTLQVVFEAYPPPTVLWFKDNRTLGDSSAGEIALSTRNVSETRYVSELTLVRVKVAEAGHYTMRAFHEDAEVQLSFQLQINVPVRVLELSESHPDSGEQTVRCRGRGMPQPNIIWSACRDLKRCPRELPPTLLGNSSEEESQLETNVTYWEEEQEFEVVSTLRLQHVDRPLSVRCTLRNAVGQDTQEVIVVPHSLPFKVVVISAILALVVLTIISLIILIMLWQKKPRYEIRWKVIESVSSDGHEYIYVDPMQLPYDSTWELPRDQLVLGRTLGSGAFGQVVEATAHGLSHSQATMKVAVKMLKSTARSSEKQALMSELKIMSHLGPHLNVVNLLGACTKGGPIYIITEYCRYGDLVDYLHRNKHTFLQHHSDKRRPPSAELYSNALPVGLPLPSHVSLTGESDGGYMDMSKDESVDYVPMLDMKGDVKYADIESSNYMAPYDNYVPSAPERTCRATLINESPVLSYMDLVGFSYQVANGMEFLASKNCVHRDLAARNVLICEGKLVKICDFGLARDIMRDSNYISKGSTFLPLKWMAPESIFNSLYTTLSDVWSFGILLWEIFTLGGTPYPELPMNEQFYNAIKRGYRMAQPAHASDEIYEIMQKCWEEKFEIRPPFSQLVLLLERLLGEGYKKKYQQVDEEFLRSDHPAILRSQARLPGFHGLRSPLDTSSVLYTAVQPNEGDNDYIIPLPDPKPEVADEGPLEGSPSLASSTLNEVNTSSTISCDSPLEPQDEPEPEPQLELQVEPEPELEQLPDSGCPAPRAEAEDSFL
Description: We investigated the competitive binding of [^125I]4 to BxPC3-luc cells with PDGFRβ ligand, 1, 2, and 3.
BxPC3-luc cells in medium containing 10% FBS and antibiotics were seeded on 24-well plates (50,000 cells/wells) and incubated for 24 h in a 5% CO2 incubator at 37 °C. Nine concentrations of displacing nonradiolabeled ligands (1, 2 and 3) (ranging from 1 pM to 1 mM) and [^125I]4 in medium without FBS were incubated at 37 °C for 4 h. After washing the cells twice using 250 µL of ice-cold PBS, the unbound radioligand was removed. The cells were dissolved using 250 µL of 1 M NaOH and wells were washed with 250 µL of 1 M NaOH. The bound radioactivity was determined using a gamma counter.
All data were statisticaly analyzed using GraphPad 5.0 software (La Jolla, CA, USA) and expressed as mean ± standard deviation (SD). Significance for in vitro blocking experiments was determined by a one-way analysis of variance (ANOVA) followed by Dunnett’s post hoc test compared to the control group. Significance in cell viability assays was determined by ANOVA followed by Tukey’s post hoc test. IC50 values for the binding assay were calculated by nonlinear regression. Significant differences in biodistribution experiments between [^77Br]2 and [^77Br]3 groups were determined using unpaired Student’s t-test. Significance for in vivo blocking studies between control and blocking groups were determined by unpaired Student’s t-test. Results were considered statistically significant at p < 0.05.

[1] = tested on: PDGFRβ overexpressed TR-PCT1 cells; assay: Cell viability assay (WST-8 / Cell Counting Kit-8); assay type: cell-based, rat; conditions: 1–1000 nM, 72 h, 20 ng/mL PDGF-BB, compared with 1
Description: The binding affinity of 2 and 3 to the ATP-binding site in PDGFRβ was evaluated using PDGFRβ overexpressed TR-PCT1 cells. Cells were treated with 1–1000 nM of synthesized ligands, 1, 2, or 3.
Figure 4 Cell viability after exposure 1, 2, and 3 by WST-8 assay. Data were presented as mean ± SD for three samples. Significance was determined using a one-way ANOVA followed by Tukey’s post hoc test (^*p < 0.01, ^**p < 0.001).
The cell viability assay of brominated compounds, 2 and 3, was evaluated as described previously[24],[27]. Namely, TR-PCT1 cells were seeded on 96-well plates (5 × 10^3 cells/well) and cultured at 33 °C in DMEM medium with 20 ng/mL PDGF-BB and 2% FBS in a 5% CO2 incubator. Cells were treated with each compound for 72 h and cell viability was determined by the Cell Counting Kit-8.

[2] = Biodistribution in ddY mice; assay type: in vivo; conditions: i.v. co-injection
Description: In this study, to minimize both the number of mice consumed in the experiment and the potential for experimental errors, we co-injected radiobrominated and radioiodinated compounds into mice[30],[31]. High radioactivity in the liver, small intestine, and large intestine was observed.
(§1) Mice were intravenously injected via the tail with 100 µL of saline solution of [^77Br]2 and [^125I]4 or [^77Br]3 and [^125I]5 (74 kBq, respectively), containing 10% ethanol and 1% tween-80. The ddY mice were sacrificed at 10 min, 1, 4, and 24 h postinjection. Meanwhile, tumor-bearing mice were sacrificed at 1 h postinjection.
(§2) Tissues in mice were resected and weighed. The radioactivity of the tissues was counted by a gamma counter and counts were corrected for background radiation. The data were expressed as percent injection dose per gram tissue (%ID/g).

BxPC3-luc tumor = assay: Biodistribution in BxPC3-luc tumor-bearing mice; assay type: in vivo, BALB/c nu/nu mice
Description: We investigated the biodistribution of the radiotracers in BxPC3-luc tumor-bearing mice by co-injecting [^77Br]2 with [^125I]4 (Table 3), and [^77Br]3 with [^125I]5 (Table 4).
Animal experiments were conducted in strict accordance with the Guidelines for the Care and Use of Laboratory Animals of Kanazawa University. The animal experimental protocols used were approved by the Committee on Animal Experimentation of Kanazawa University (Permit Number: AP-163766). The animals were housed with free access to food and water at approximately 23 °C with a 12 h light/dark schedule. ddY mice (six-week-old, male, 27–30 g) and BALB/c nu/nu mice (four-week-old, female, 12–17 g) were purchased from Japan SLC Inc. (Hamamatsu, Japan). For preparing the tumor-bearing mice, BxPC3-luc cells (5 × 10^6 cells) were subcutaneously injected into the left shoulder of BALB/c nu/nu mice. The tumor reached palpable size after two weeks of the inoculation.
as §1, §2

[3] = tested on: BxPC3-luc cells (PDGFRβ-positive); assay: Cellular uptake study (double tracer method); assay type: cell-based; conditions: BxPC3-luc (PDGFRβ-positive) vs MCF7 (PDGFRβ-negative), 0.5–4 h
Description: Figure 5 Cellular uptake study. Time-dependent accumulation of (a) [^77Br]2 and [^125I]4 (b) [^77Br]3 and [^125I]5 in BxPC3-luc and MCF7 cells. Data were presented as mean ± SD for three samples.
Radiotracer uptake experiments in tumor cells were performed using BxPC3-luc and MCF7 cell lines. To compare the uptake between radiobrominated compounds, [^77Br]2 and [^77Br]3, and the corresponding radioiodinated compounds, [^125I]4 and [^125I]5, the cellular uptake experiments were performed by a double tracer method as described previously with a slight modification[30],[31],[35]. Briefly, the cells were seeded in RPMI 1640 medium containing 10% FBS and antibiotics on six-well plates (2 × 10^5 cells/well) for 24 h in a 5% CO2 incubator at 37 °C. After removal of medium, cells were incubated in medium without FBS containing [^77Br]2 (3.7 kBq/well) and [^125I]4 (3.7 kBq/well) or [^77Br]3 (3.7 kBq/well) and [^125I]5 (3.7 kBq/well) and tween-80 (0.1%) for 0.5, 1, 2 and 4 h. Radioiodinated compounds were prepared as described previously][24]. Cells were washed with ice-cold 1 mL of PBS and dissolved using 0.5 mL of 1 M NaOH and wells were washed with 1 M NaOH aqueous solution (0.5 mL). The radioactivity of pooled basic fractions was counted by a gamma counter. A range between 16 and 71 keV was used for measuring ^125I and between 95 and 700 for ^77Br. When radioactivity of ^77Br was counted, the crossover of ^125I activity into the ^77Br channel was negligible. More than one month after the experiment, the radioactivity of ^125I was determined because at that time ^77Br has been decayed and its radioactivity was negligible. The protein in the cell was quantified by a BCA Protein Assay Kit. All data were expressed as %dose/µg protein.

[4] = parameters: method as in PMID 28838832; conditions: radioiodinated compounds; cited from earlier work
RXF393 xenograft = tested on: RXF393 xenograft; parameters: method as in PMID 23522977; conditions: RXF393 xenograft mice; cited from earlier work

COCCOc1ccc2c(c1)ncn2-c1ccc2c(Br)ccc(N3CCC(N)CC3)c2n1 [Compound 2, 1-{5-bromo-2-[5-(2-methoxyethoxy)-1H-benzo[d]imidazol-1-yl]quinolin-8-yl}piperidin-4-amine]
IC50 (PDGFRβ (BxPC3-luc cells)): 56 ± 13 nM
Cell viability of TR-PCT1 cells [1]: more effective in decreasing the viability of TR-PCT1 cells than 1

COCCOc1ccc2c(c1)ncn2-c1ccc2c([125I])ccc(N3CCC(N)CC3)c2n1 [[^125I]4, [^125I]1-{5-iodo-2-[5-(2-methoxyethoxy)-1H-benzo[d]imidazol-1-yl]quinolin-8-yl}piperidin-4-amine, reference compound]
Radioactivity in Blood ([2]; 10 min): 1.15 (0.08)^* %injected dose/gram tissue
Radioactivity in Bone ([2]; 10 min): 1.53 (0.14) %injected dose/gram tissue
Radioactivity in Brain ([2]; 10 min): 0.07 (0.00)^** %injected dose/gram tissue
Radioactivity in Heart ([2]; 10 min): 4.27 (0.27) %injected dose/gram tissue
Radioactivity in Kidney ([2]; 10 min): 14.44 (1.31) %injected dose/gram tissue
Radioactivity in Large intestine ([2]; 10 min): 0.80 (0.07)^* %injected dose/gram tissue
Radioactivity in Liver ([2]; 10 min): 11.59 (0.69) %injected dose/gram tissue
Radioactivity in Lung ([2]; 10 min): 9.64 (0.66)^* %injected dose/gram tissue
Radioactivity in Muscle ([2]; 10 min): 1.92 (0.18) %injected dose/gram tissue
Radioactivity in Pancreas ([2]; 10 min): 3.52 (0.33)^* %injected dose/gram tissue
Radioactivity in Small intestine ([2]; 10 min): 9.32 (2.30) %injected dose/gram tissue
Radioactivity in Spleen ([2]; 10 min): 5.08 (0.56) %injected dose/gram tissue
Radioactivity in Stomach ([2]; 10 min): 1.66 (0.11) %injected dose /organ
Radioactivity in Blood ([2]; 1 h): 0.32 (0.09) %injected dose/gram tissue
Radioactivity in Bone ([2]; 1 h): 1.22 (0.29) %injected dose/gram tissue
Radioactivity in Brain ([2]; 1 h): 0.15 (0.04) %injected dose/gram tissue
Radioactivity in Heart ([2]; 1 h): 1.23 (0.49) %injected dose/gram tissue
Radioactivity in Kidney ([2]; 1 h): 8.18 (2.71) %injected dose/gram tissue
Radioactivity in Large intestine ([2]; 1 h): 2.16 (0.54) %injected dose/gram tissue
Radioactivity in Liver ([2]; 1 h): 3.72 (1.18) %injected dose/gram tissue
Radioactivity in Lung ([2]; 1 h): 3.88 (0.72) %injected dose/gram tissue
Radioactivity in Muscle ([2]; 1 h): 0.78 (0.11) %injected dose/gram tissue
Radioactivity in Pancreas ([2]; 1 h): 2.49 (0.63) %injected dose/gram tissue
Radioactivity in Small intestine ([2]; 1 h): 25.44 (6.86) %injected dose/gram tissue
Radioactivity in Spleen ([2]; 1 h): 1.67 (0.41) %injected dose/gram tissue
Radioactivity in Stomach ([2]; 1 h): 1.76 (0.58) %injected dose /organ
Radioactivity in Blood ([2]; 4 h): 0.19 (0.05) %injected dose/gram tissue
Radioactivity in Bone ([2]; 4 h): 0.32 (0.08) %injected dose/gram tissue
Radioactivity in Brain ([2]; 4 h): 0.03 (0.00)^** %injected dose/gram tissue
Radioactivity in Heart ([2]; 4 h): 0.31 (0.05)^* %injected dose/gram tissue
Radioactivity in Kidney ([2]; 4 h): 4.28 (0.68) %injected dose/gram tissue
Radioactivity in Large intestine ([2]; 4 h): 51.43 (8.57) %injected dose/gram tissue
Radioactivity in Liver ([2]; 4 h): 3.45 (1.02) %injected dose/gram tissue
Radioactivity in Lung ([2]; 4 h): 2.18 (0.55) %injected dose/gram tissue
Radioactivity in Muscle ([2]; 4 h): 0.23 (0.06)^** %injected dose/gram tissue
Radioactivity in Pancreas ([2]; 4 h): 1.27 (0.11)^* %injected dose/gram tissue
Radioactivity in Small intestine ([2]; 4 h): 4.98 (0.89) %injected dose/gram tissue
Radioactivity in Spleen ([2]; 4 h): 0.43 (0.11) %injected dose/gram tissue
Radioactivity in Stomach ([2]; 4 h): 0.85 (0.21) %injected dose /organ
Radioactivity in Blood ([2]; 24 h): 0.03 (0.00)^** %injected dose/gram tissue
Radioactivity in Bone ([2]; 24 h): 0.15 (0.05)^** %injected dose/gram tissue
Radioactivity in Brain ([2]; 24 h): 0.02 (0.00)^** %injected dose/gram tissue
Radioactivity in Heart ([2]; 24 h): 0.10 (0.09)^** %injected dose/gram tissue
Radioactivity in Kidney ([2]; 24 h): 0.13 (0.03) %injected dose/gram tissue
Radioactivity in Large intestine ([2]; 24 h): 0.14 (0.02) %injected dose/gram tissue
Radioactivity in Liver ([2]; 24 h): 0.29 (0.08) %injected dose/gram tissue
Radioactivity in Lung ([2]; 24 h): 0.15 (0.08)^* %injected dose/gram tissue
Radioactivity in Muscle ([2]; 24 h): 0.04 (0.01)^** %injected dose/gram tissue
Radioactivity in Pancreas ([2]; 24 h): 0.07 (0.02) %injected dose/gram tissue
Radioactivity in Small intestine ([2]; 24 h): 0.04 (0.00)^** %injected dose/gram tissue
Radioactivity in Spleen ([2]; 24 h): 0.11 (0.09)^* %injected dose/gram tissue
Radioactivity in Stomach ([2]; 24 h): 0.05 (0.00)^** %injected dose /organ
Tumor-to-blood ratio of radioactivity (BxPC3-luc tumor; 1 h postinjection): 1.9
Radioactivity in Blood (BxPC3-luc tumor; i.v. co-injection, 1 h): 0.63 (0.05) %injected dose/gram of tissue
Radioactivity in Bone (BxPC3-luc tumor; i.v. co-injection, 1 h): 0.83 (0.10)^* %injected dose/gram of tissue
Radioactivity in Brain (BxPC3-luc tumor; i.v. co-injection, 1 h): 0.07 (0.00) %injected dose/gram of tissue
Radioactivity in BxPC3-luc tumor (BxPC3-luc tumor; i.v. co-injection, 1 h): 1.19 (0.06)^* %injected dose/gram of tissue
Radioactivity in Heart (BxPC3-luc tumor; i.v. co-injection, 1 h): 1.51 (0.40) %injected dose/gram of tissue
Radioactivity in Kidney (BxPC3-luc tumor; i.v. co-injection, 1 h): 15.56 (3.61) %injected dose/gram of tissue
Radioactivity in Large intestine (BxPC3-luc tumor; i.v. co-injection, 1 h): 2.46 (0.35) %injected dose/gram of tissue
Radioactivity in Liver (BxPC3-luc tumor; i.v. co-injection, 1 h): 11.02 (0.73) %injected dose/gram of tissue
Radioactivity in Lung (BxPC3-luc tumor; i.v. co-injection, 1 h): 9.14 (2.14) %injected dose/gram of tissue
Radioactivity in Muscle (BxPC3-luc tumor; i.v. co-injection, 1 h): 0.79 (0.10) %injected dose/gram of tissue
Radioactivity in Pancreas (BxPC3-luc tumor; i.v. co-injection, 1 h): 5.48 (0.93) %injected dose/gram of tissue
Radioactivity in Small intestine (BxPC3-luc tumor; i.v. co-injection, 1 h): 47.01 (5.56) %injected dose/gram of tissue
Radioactivity in Spleen (BxPC3-luc tumor; i.v. co-injection, 1 h): 2.76 (0.73) %injected dose/gram of tissue
Radioactivity in Stomach (BxPC3-luc tumor; i.v. co-injection, 1 h): 0.97 (0.19) %injected dose /organ
Cellular uptake in BxPC3-luc cells [3]: higher than that in MCF7 cells
n-octanol/phosphate buffer partition coefficient (log P) [4]: 2.71 ± 0.03

CNC(=O)c1cc(Oc2ccc(NC(=O)Nc3ccc(Cl)c(C(F)(F)F)c3)cc2)ccn1 [^11C-labeled sorafenib, sorafenib]
Tumor uptake (RXF393 xenograft): about 2.52 ± 0.33 %ID/g
